What was measured:
MPTP-treated marmosets = conditions: similar dose levels (10 mg/kg); cited from earlier work
mice = conditions: cited from earlier work
rats = conditions: cited from earlier work
[1] = tested on: rats treated with reserpine or dopamine receptor antagonists (haloperidol or SCH23390); conditions: 10 mg/kg i.p.; cited from earlier work
[2] = tested on: MPTP-lesioned primate (marmosets) model of Parkinson's disease; conditions: 10 mg/kg i.p.; without attenuation of the anti-parkinsonian actions of L-DOPA; cited from earlier work
[3] = tested on: MPTP-lesioned cynomolgus macaques; assay: Acute DPI-289 in combination with low-dose L-DOPA, versus high-dose L-DOPA, in MPTP-lesioned macaques with L-DOPA-induced dyskinesia; type: in vivo, Macaca fascicularis; conditions: high dose L-DOPA alone (about 30 to 31 mg/kg)
Text: This study utilized female MPTP-lesioned cynomolgus macaques that have received chronic repeat-treatment with L-DOPA and manifested stable and reproducible dyskinesia, of choreic and dystonic nature, in response to subsequent L-DOPA-treatments. Eight cynomolgus monkeys (Macaca fascicularis, 7.6-13.1 years of age, 3.0-4.5 kg) were used in this study. In a prior experiment, for each individual animal a low and high dose of L-DOPA was established such that the low dose (LD1) provided modest anti-parkinsonian action (1-2 h) and elicited predominantly non-disabling dyskinesia, the high dose (LDh) provided the best anti-parkinsonian effect achievable but also elicited disabling dyskinesia and an anti-parkinsonian benefit of 2-3 h duration
The behavioral effects of acute DPI-289 administered in combination with low-dose L-DOPA (LD1) were assessed. Also higher dose of L-DOPA was also assessed without the addition of DPI-289. The low dose (LD1) was about 10 to 11 mg/kg of L-DOPA which is considered to be sub-optimal in terms of anti-parkinsonian benefit. The dose of DPI-289 was 20 mg/kg and the high dose of L-DOPA was about 30 to 31 mg/kg and considered to an optimal does in terms of anti-parkinsonian benefit but with disabling dyskinesia. The DPI-289 was administered one (1) hour prior to the L-DOPA and start of observation. Activity counts were collected and parkinsonian disability and dyskinesia was assessed via post-hoc analysis of video-recordings by a movement disorder neurologist blinded to treatment.
On the day before behavioral observations, food was removed overnight, from 5 p.m. On days of behavioral assessment, treatment was administered to the animals in their home cage at approximately 9 a.m. A 6 h period of observation then commenced 1 h after oral dosing.
The animals were rendered parkinsonian by once daily subcutaneous injection of 0.2 mg/kg MPTP, administered for 8-12 days, until the first appearance of parkinsonism symptoms. After this time, a parkinsonian syndrome reached a moderate to marked level, over approximately 30 days, and stabilized. Additional administrations of MPTP were given to some animals to titrate to similar degrees of parkinsonism in individuals across the group. […] Sixty days after commencing MPTP administration, L-DOPA (25 mg/kg) was administered orally twice daily for at least two months. L-DOPA was given with the decarboxylase inhibitor benserazide (as Madopar™). This treatment leads to the development of motor fluctuations, including dyskinesia.

[4] = tested on: unilateral 6-OHDA-lesioned Rats; assay: Postural asymmetry and dyskinesia (AIMs) on repeated dosing in unilateral 6-OHDA-lesioned rats; type: in vivo, rat; conditions: 6 mg/kg i.p. daily for 15 days

SMILES: C=CCN1C[C@H](C)N([C@H](c2ccc(C(=O)N(CC)CC)cc2)c2cccc(OC)c2)C[C@H]1C [SNC80]
- motor activity, bradykinesia and disability scores (MPTP-treated marmosets): restored motor activity, bradykinesia and disability scores to normal
- parkinsonian posture (MPTP-treated marmosets): not statistically reversed
- convulsions (mice): seizure-like convulsions
- convulsions (rats): seizure-like convulsions
- behavioral deficits (ambulatory behavior, grooming, rearing, social interaction and exploration, static investigation) [1]: restored behavioral deficits

SMILES: COc1cccc2c1[C@]13CCN(CC4CC4)[C@H](C2)[C@]1(OC)CCC(=O)C3 [cyprodime]
- L-DOPA-induced dyskinesia [2]: reduce completely L-DOPA-induced dyskinesia

SMILES: N[C@@H](Cc1ccc(O)c(O)c1)C(=O)O [L-DOPA, reference compound]
- dyskinesia [3]: severe dyskinesia in the first three hours after dosage
- parkinsonian disability [3]: parkinsonian disability increased in the last four to six hours
- postural asymmetry [4]: reduced or reversed the postural asymmetry

— US10973815B2, “Delta opioid agonist mu opioid antagonist compositions and methods for treating Parkinsons disease” (priority 2016, dated 2021)
